Assay results from patent US20180200233A1, “COMPOSITIONS FOR PREVENTING CANCERS ASSOCIATED WITH HUMAN PAPILLOMA VIRUSES” (Loma Linda University, priority 2015, published 2018).

What was measured:
in vitro = type: cell-based, human; conditions: human
Description: (§1) FIGS. 3A-E are graphs providing data regarding resistance of HPV^+ SiHa cells to TRAIL-, cisplatin- and […] apoptosis, in the presence and absence of small molecules as disclosed herein. (FIG. 3A) HPV^+ SiHa cells are resistant to TRAIL-induced apoptosis as compared to the human osteosarcoma cell line U2OS. Cells (2×10^4 cells per well) were seeded into a 96-well plate, allowed to incubate overnight, and then treated with indicated concentration of TRAIL in the presence of cycloheximide (5 μg/ml). The viability of cells was measured after overnight incubation using the MTT assay; the viability of cells untreated with TRAIL was set at 100% for each group. (FIG. 3B) The indicated concentrations of three small molecules were added to SiHa cells, and an MTT assay was preformed after overnight incubation. The viability of cells untreated with small molecules was set as 100%. (FIG. 3C) The indicated concentrations of myricetin or spinacine were added 4 h prior to TRAIL (100 ng/ml) in the presence of cycloheximide (5 μg/ml) and incubated at 37° C. overnight. The viability of cells untreated with small molecules was set at 100%. (FIG. 3D and FIG. 3E) SiHa cells (2×10^4 cells per well) were seeded into a 96-well plate and allowed to incubate overnight. 100 μM of myricetin and 50 μM of spinacine were added 4 h prior to either (FIG. 3D) doxorubicin or (FIG. 3E) cisplatin. Cell viability was measured after overnight incubation using the MTT assay, and the viability of cells untreated with either myricetin or spinacine was set at 100%. Experiments were performed in triplicate, and error bars indicate the standard deviation.
(§2) The molecules were then tested to determine whether those that block E6/caspase 8 binding in vitro could also act in the context of a cell. SiHa cells are an HPV^+ cell line, derived from a cervical carcinoma, which serves as a commonly used model for HPV-associated malignancies. To determine whether HPV^+ SiHa cells are resistant to TRAIL-induced apoptosis, SiHa cells were treated with TRAIL and cell viability was assessed. TRAIL-sensitive, HPV^− U2OS cells served as a positive control. […] Myricetin and/or spinacine were tested to determine if they could sensitize these HPV^+ cells to TRAIL-induced apoptosis. […] Table 2 lists and compares the concentrations of the three tested compounds required to induce death in 50% of SiHa cells in the presence or absence of TRAIL.
The extracellular domain of human TRAIL was cloned into a pTriEx expression plasmid containing N-terminal Hisx6 tag. His-TRAIL was expressed in the E. coli BL-21 pLys strain and purified as previously described. Doxorubicin and cisplatin were purchased from Sigma. His-TRAIL, doxorubicin, and cisplatin were diluted in PBS to the desired concentration before using. To measure cell survival following treatment with TRAIL, cisplatin and doxorubicin, SiHa (2×10^4/well), C33A (1×10^4/well), and HNSCC cells (2×10^4/well) were seeded into 96-well plates and allowed to adhere overnight. Small molecules at the desired concentration were added and incubated at 37° C. for 4 h. As indicated, TRAIL, cisplatin or doxorubicin was then added. […] All experiments were repeated at least three times (three biological replicates, carried out on different days), with each experimental group measured in triplicate within each of these individual experiments. […]

SiHa cells = assay: MTT cell viability, SiHa cells, TRAIL-induced apoptosis; type: cell-based, human; conditions: for increase in cell death in the presence than in the absence of TRAIL: from the EC50 values of Table 2; for concentration required to inhibit binding and to sensitize cells: cell sensitization experiments
Description: as §1
FIGS. 5A-B are graphs showing myricetin and spinacine (5) re-sensitized HPV^+, but not HPV^−, cells to treatment with TRAIL. SiHa (2×10^4 cells per well) and C33A cells (1×10^4 cells per well) were seeded into a 96-well plate and allowed to incubate overnight, then cells were pre-treated in the presence or absence of myricetin (100 μM) (FIG. 5A) or spinacine (50 μM) (FIG. 5B) for 4 h. The indicated concentration of TRAIL, along with cycloheximide (5 μg/ml) was added and cells were allowed to incubate overnight. Cell viability was measured by MTT assay, and the viability of cells untreated with TRAIL was set at 100%. Experiments were performed in triplicate, and error bars indicate the standard deviation.
as §2
The extracellular domain of human TRAIL was cloned into a pTriEx expression plasmid containing N-terminal Hisx6 tag. His-TRAIL was expressed in the E. coli BL-21 pLys strain and purified as previously described. Doxorubicin and cisplatin were purchased from Sigma. His-TRAIL, doxorubicin, and cisplatin were diluted in PBS to the desired concentration before using. To measure cell survival following treatment with TRAIL, cisplatin and doxorubicin, SiHa (2×10^4/well), C33A (1×10^4/well), and HNSCC cells (2×10^4/well) were seeded into 96-well plates and allowed to adhere overnight. Small molecules at the desired concentration were added and incubated at 37° C. for 4 h. As indicated, TRAIL, cisplatin or doxorubicin was then added. […]

## O=C(O)C1Cc2[nH]cnc2CN1 (stereo not drawn) [Compound 5, 4,5,6,7-Tetrahydro-1H-imidazo(4,5-c)pyridine-6-carboxylic acid]
In vitro
  EC50: 268 µM
SiHa cells; SiHa cells
  increase in cell death in the presence than in the absence of TRAIL: 8.6 fold
SiHa cells
  concentration required to inhibit binding and to sensitize cells: 50 µM

## OCn1cnc2ccccc21 [Compound 3, 1H-benzimidazole-1-methanol]
In vitro
  EC50: 285 µM
SiHa cells; SiHa cells, compound added 4 h prior to TRAIL 100 ng/ml + cycloheximide 5 μg/ml, overnight, MTT
  EC50 for TRAIL-induced apoptosis: No sensitization

## O=c1c(O)c(-c2cc(O)c(O)c(O)c2)oc2cc(O)cc(O)c12 [Myricetin, reference compound]
In vitro
  EC50: 539 µM
SiHa cells; 100 μM myricetin or 50 μM spinacine for 4 h, TRAIL up through 100 ng/ml
  sensitivity of SiHa cells to TRAIL after pre-treatment (in words): sensitivity increased dramatically
SiHa cells; SiHa cells
  increase in cell death in the presence than in the absence of TRAIL: 3.5 fold
SiHa cells
  concentration required to inhibit binding and to sensitize cells: 100 µM
